Reference: publication PMC7708446, “^18F-meta-fluorobenzylguanidine (^18F-mFBG) to monitor changes in norepinephrine transporter expression in response to therapeutic intervention in neuroblastoma models” (Scientific Reports, 2020)
Marks after values point to notes of the source that are not given here.

Test system: SK-N-BE(2)C xenografts
Assay: Ex vivo biodistribution (γ-counter), mice bearing SK-N-BE(2)C xenografts
Type: in vivo
Details: SK-N-BE(2)C
Method: All studies were conducted in compliance with licenses issued under the UK Animals (Scientific Procedures) Act 1986 and approved by the Institute of Cancer Research Animal Welfare and Ethical Review Body (AWERB) according to the United Kingdom National Cancer Research Institute Guidelines for Animal Welfare in Cancer Research (project license PCC916B22, Animals in Science Regulation Unit, Home Office Science, London, UK)[65]. Female Nu(NCr)-Foxn1nu mice (5–7 weeks; 20–22 g) obtained from an in-house breeding colony were used in the studies. Animals were housed in a temperature-controlled facility with 12 h on–12 h off light cycle and provided water and laboratory rodent food ad libitum. Subcutaneous xenografts were generated by injection of either Kelly (5 × 10^6/0.1 mL PBS/Matrigel 30% v/v; BD Matrigel Matrix, BD Bioscience, San Jose, California, US) or SK-N-BE(2)C (1 × 10^6/0.1 mL PBS/Matrigel) into the lower flank. For the treatment studies, AZD2014 stock solution in DMSO was diluted in PEG400 to a final concentration of 2 mg/mL (10% DMSO maximum). When tumours reached ~ 100 mm^3 (calliper measurements using formula: Volume = (Width(2) × Length)/2), mice were treated daily, for a total of either 1, 3 or 7 days, by oral gavage with AZD2014 (20 or 25 mg/kg/day) or vehicle control. Mice were monitored daily for body weight or other adverse effects.
When the tumours reached approximately 100–200 mm^3, mice were anaesthetised with an isoflurane/O2 mixture (1.5–2.0% v/v) and intravenously injected with either ^18F-mFBG (~ 7.5 MBq) or ^123I-mIBG (~ 20 MBq). Mice were then imaged using an Albira PET/SPECT/CT scanner (Bruker, Coventry, UK). Whole body PET static images were acquired after 1 and 4 h post-injection (p.i.) for 10 min with an energy window of 358 to 664 keV followed by CT acquisition. Acquisition, reconstruction and image analysis were performed as described previously. Following the final scan, the mice were sacrificed and the major organs were excised, weighed and their associated radioactivity was measured using a γ-counter. Biodistribution and image quantification were expressed as a percentage of injected dose per gram of tissue (%ID/g), whereby 1 cm^3 on PET acquisitions were assumed to equal 1 g (n ≥ 3 mice ± SD).

N=C(N)NCc1cccc([18F])c1 [^18F-mFBG, ^18F-meta-fluorobenzylguanidine]
^18F-mFBG biodistribution 4 h p.i., Tumour (1 day vehicle): 2.76 ± 1.14 %ID/g | ^18F-mFBG biodistribution 4 h p.i., Tumour:blood (1 day vehicle): 15.27 ± 5.32 | ^18F-mFBG biodistribution 4 h p.i., Tumour:muscle (1 day vehicle): 4.44 ± 0.94 | ^18F-mFBG biodistribution 4 h p.i., Blood (3 day vehicle): 0.18 ± 0.08 %ID/g | ^18F-mFBG biodistribution 4 h p.i., Bone (3 day vehicle): 1.64 ± 0.45 %ID/g | ^18F-mFBG biodistribution 4 h p.i., Brown adipose (3 day vehicle): 5.15 ± 0.78^b %ID/g | ^18F-mFBG biodistribution 4 h p.i., Heart (3 day vehicle): 3.64 ± 0.89 %ID/g | ^18F-mFBG biodistribution 4 h p.i., Kidney (3 day vehicle): 1.13 ± 0.47 %ID/g | ^18F-mFBG biodistribution 4 h p.i., Liver (3 day vehicle): 1.96 ± 0.02 %ID/g | ^18F-mFBG biodistribution 4 h p.i., Lungs (3 day vehicle): 1.15 ± 0.23 %ID/g | ^18F-mFBG biodistribution 4 h p.i., Muscle (3 day vehicle): 0.53 ± 0.19 %ID/g | ^18F-mFBG biodistribution 4 h p.i., Pancreas (3 day vehicle): 1.25 ± 0.51 %ID/g | ^18F-mFBG biodistribution 4 h p.i., Small intestine (3 day vehicle): 5.32 ± 0.11 %ID/g | ^18F-mFBG biodistribution 4 h p.i., Spleen (3 day vehicle): 2.08 ± 1.29 %ID/g | ^18F-mFBG biodistribution 4 h p.i., Tumour (3 day vehicle): 2.39 ± 0.10 %ID/g | ^18F-mFBG biodistribution 4 h p.i., Tumour:blood (3 day vehicle): 14.47 ± 4.61 | ^18F-mFBG biodistribution 4 h p.i., Tumour:muscle (3 day vehicle): 4.89 ± 1.48 | ^18F-mFBG biodistribution 4 h p.i., Blood (7 day AZD2014 (20 mg/kg/day)): 0.32 ± 0.14 %ID/g | ^18F-mFBG biodistribution 4 h p.i., Bone (7 day AZD2014 (20 mg/kg/day)): 0.63 ± 0.54 %ID/g | ^18F-mFBG biodistribution 4 h p.i., Brown adipose (7 day AZD2014 (20 mg/kg/day)): 8.08 ± 0.72 %ID/g | ^18F-mFBG biodistribution 4 h p.i., Heart (7 day AZD2014 (20 mg/kg/day)): 4.17 ± 1.63 %ID/g | ^18F-mFBG biodistribution 4 h p.i., Kidney (7 day AZD2014 (20 mg/kg/day)): 1.02 ± 0.15 %ID/g | ^18F-mFBG biodistribution 4 h p.i., Liver (7 day AZD2014 (20 mg/kg/day)): 2.64 ± 0.46 %ID/g | ^18F-mFBG biodistribution 4 h p.i., Lungs (7 day AZD2014 (20 mg/kg/day)): 1.33 ± 0.36 %ID/g | ^18F-mFBG biodistribution 4 h p.i., Muscle (7 day AZD2014 (20 mg/kg/day)): 0.75 ± 0.02 %ID/g | ^18F-mFBG biodistribution 4 h p.i., Pancreas (7 day AZD2014 (20 mg/kg/day)): 3.08 ± 1.80 %ID/g | ^18F-mFBG biodistribution 4 h p.i., Small intestine (7 day AZD2014 (20 mg/kg/day)): 6.87 ± 1.86 %ID/g | ^18F-mFBG biodistribution 4 h p.i., Spleen (7 day AZD2014 (20 mg/kg/day)): 1.64 ± 0.46 %ID/g | ^18F-mFBG biodistribution 4 h p.i., Tumour (7 day AZD2014 (20 mg/kg/day)): 2.61 ± 1.19 %ID/g | ^18F-mFBG biodistribution 4 h p.i., Tumour:blood (7 day AZD2014 (20 mg/kg/day)): 8.06 ± 2.57 | ^18F-mFBG biodistribution 4 h p.i., Tumour:muscle (7 day AZD2014 (20 mg/kg/day)): 3.50 ± 1.62 | ^18F-mFBG biodistribution 4 h p.i., Blood (7 day vehicle): 0.17 ± 0.06 %ID/g | ^18F-mFBG biodistribution 4 h p.i., Bone (7 day vehicle): 1.13 ± 0.20 %ID/g | ^18F-mFBG biodistribution 4 h p.i., Brown adipose (7 day vehicle): 6.08 ± 2.45 %ID/g | ^18F-mFBG biodistribution 4 h p.i., Heart (7 day vehicle): 5.87 ± 2.80 %ID/g | ^18F-mFBG biodistribution 4 h p.i., Kidney (7 day vehicle): 1.09 ± 0.16 %ID/g | ^18F-mFBG biodistribution 4 h p.i., Liver (7 day vehicle): 2.15 ± 0.30 %ID/g | ^18F-mFBG biodistribution 4 h p.i., Lungs (7 day vehicle): 1.86 ± 0.64 %ID/g | ^18F-mFBG biodistribution 4 h p.i., Muscle (7 day vehicle): 0.67 ± 0.07 %ID/g | ^18F-mFBG biodistribution 4 h p.i., Pancreas (7 day vehicle): 2.81 ± 1.72 %ID/g | ^18F-mFBG biodistribution 4 h p.i., Small intestine (7 day vehicle): 6.22 ± 0.35 %ID/g | ^18F-mFBG biodistribution 4 h p.i., Spleen (7 day vehicle): 1.75 ± 0.67 %ID/g | ^18F-mFBG biodistribution 4 h p.i., Tumour (7 day vehicle): 2.17 ± 1.01 %ID/g | ^18F-mFBG biodistribution 4 h p.i., Tumour:blood (7 day vehicle): 15.55 ± 13.55 | ^18F-mFBG biodistribution 4 h p.i., Tumour:muscle (7 day vehicle): 3.36 ± 1.90
